We go through six compounds from PubChem BioAssay AID1259407 (Chemical Carcinogenesis Research Information System (CCRIS), 2018).

Activity calls are given as the source filed them. The rule behind the calls is not given here.

The data set has as its system CCRIS mutagenicity, Ames/micronucleus/aberration tests. As to the kind of experiment: CCRIS mutagenicity studies. As to conditions: Test System: AMES SALMONELLA TYPHIMURIUM
The mark [1] stands for this setting: Strain/Indicator: TA98, Metabolic Activation: NONE, Method: STANDARD PLATE.
Where [2] appears, read: Strain/Indicator: TA100, Metabolic Activation: NONE, Method: STANDARD PLATE.
The mark [3] stands for this setting: Strain/Indicator: TA1537, Metabolic Activation: NONE, Method: STANDARD PLATE.
[4] abbreviates: Strain/Indicator: TA1535, Metabolic Activation: NONE, Method: STANDARD PLATE.

As for `COc1ccc(CCC(=O)c2c(O)cc(O[C@@H]3O[C@H](CO)[C@@H](O)[C@H](O)[C@H]3O[C@@H]3O[C@@H](C)[C@H](O)[C@@H](O)[C@H]3O)cc2O)cc1O`, the mutagenic call (Strain/Indicator: TA97, Metabolic Activation: HAMSTER, LIVER, S-9, AROCLOR 1254 (10 OR 30%), Method: PREINCUBATION) was “inactive; negative”; the mutagenic call (Strain/Indicator: TA97, Metabolic Activation: NONE, Method: PREINCUBATION) was “inactive; negative”; the mutagenic call (Strain/Indicator: TA97, Metabolic Activation: RAT, LIVER, S-9, AROCLOR 1254 (10 OR 30%), Method: PREINCUBATION) was “inactive; negative”; the mutagenic call (Strain/Indicator: TA98, Metabolic Activation: HAMSTER, LIVER, S-9, AROCLOR 1254 (10 OR 30%), Method: PREINCUBATION) was “inactive; negative”; the mutagenic call (Strain/Indicator: TA98, Metabolic Activation: NONE, Method: PREINCUBATION) is “inactive; negative”; the mutagenic call (Strain/Indicator: TA98, Metabolic Activation: RAT, LIVER, S-9, AROCLOR 1254 (10 OR 30%), Method: PREINCUBATION) is “inactive; negative”. Further, the mutagenic call (Strain/Indicator: TA100, Metabolic Activation: HAMSTER, LIVER, S-9, AROCLOR 1254 (10 OR 30%), Method: PREINCUBATION) was “inactive; negative”; the mutagenic call (Strain/Indicator: TA100, Metabolic Activation: NONE, Method: PREINCUBATION) is “inactive; negative”; the mutagenic call (Strain/Indicator: TA100, Metabolic Activation: RAT, LIVER, S-9, AROCLOR 1254 (10 OR 30%), Method: PREINCUBATION) was “inactive; negative”; the mutagenic call (Strain/Indicator: TA1535, Metabolic Activation: HAMSTER, LIVER, S-9, AROCLOR 1254 (10 OR 30%), Method: PREINCUBATION) was “inactive; negative”; the mutagenic call (Strain/Indicator: TA1535, Metabolic Activation: NONE, Method: PREINCUBATION) was “inactive; negative”; the mutagenic call (Strain/Indicator: TA1535, Metabolic Activation: RAT, LIVER, S-9, AROCLOR 1254 (10 OR 30%), Method: PREINCUBATION) was “inactive; negative”.

For the compound `CC(=O)Nc1ccc2[nH]c3ccccc3c2c1[N+](=O)[O-]`, the mutagenic call by setting is: under setting [1], “active; positive”; (Strain/Indicator: TA98, Metabolic Activation: RAT, LIVER, S-9, PHENOBARBITAL, Method: STANDARD PLATE) “active; positive”; under setting [2], “inactive; negative”; (Strain/Indicator: TA100, Metabolic Activation: RAT, LIVER, S-9, PHENOBARBITAL, Method: STANDARD PLATE) “inactive; negative”; under setting [3], “inactive; negative”; (Strain/Indicator: TA1537, Metabolic Activation: RAT, LIVER, S-9, PHENOBARBITAL, Method: STANDARD PLATE) “inactive; negative”. For the same compound, the mutagenic call runs as follows: (Strain/Indicator: TA1538, Metabolic Activation: NONE, Method: STANDARD PLATE) “active; positive”; (Strain/Indicator: TA1538, Metabolic Activation: RAT, LIVER, S-9, PHENOBARBITAL, Method: STANDARD PLATE) “active; positive”; (Strain/Indicator: TA1977, Metabolic Activation: NONE, Method: STANDARD PLATE) “inactive; negative”; (Strain/Indicator: TA1977, Metabolic Activation: RAT, LIVER, S-9, PHENOBARBITAL, Method: STANDARD PLATE) “inactive; negative”.

As for `COP(=S)(OC)Oc1nc(Cl)c(Cl)cc1Cl`, the mutagenic call is, setting by setting: (Strain/Indicator: TA98, Metabolic Activation: NONE) “inactive; negative”; (Strain/Indicator: TA98, Metabolic Activation: RAT, LIVER, S-9, AROCLOR 1254) “inactive; negative”; (Strain/Indicator: TA100, Metabolic Activation: NONE) “inactive; negative”; (Strain/Indicator: TA100, Metabolic Activation: RAT, LIVER, S-9, AROCLOR 1254) “inactive; negative”; (Strain/Indicator: TA102, Metabolic Activation: NONE) “inactive; negative”; (Strain/Indicator: TA102, Metabolic Activation: RAT, LIVER, S-9, AROCLOR 1254) “inactive; negative”. The mutagenic call (Strain/Indicator: TA1535, Metabolic Activation: NONE) was “inactive; negative”; the mutagenic call (Strain/Indicator: TA1535, Metabolic Activation: RAT, LIVER, S-9, AROCLOR 1254) is “inactive; negative”; the mutagenic call (Strain/Indicator: TA1537, Metabolic Activation: NONE) is “inactive; negative”; the mutagenic call (Strain/Indicator: TA1537, Metabolic Activation: RAT, LIVER, S-9, AROCLOR 1254) is “inactive; negative”.

In the case of `COC1OC1(C)C` (stereo not given), the mutagenic call under setting [2] was “active; positive” and the mutagenic call under setting [4] is “active; positive”.

As to `CC(=O)N(O[C@@H]1O[C@H](CO)[C@@H](O)[C@H](O)[C@H]1O)c1ccc(Oc2ccc(Cl)cc2)cc1`, the mutagenic call reads like this: (Strain/Indicator: TA100, Metabolic Activation: GUINEA PIG, LIVER, MICROSOMAL FRACTION, PCB) “active; positive”; (Strain/Indicator: TA100, Metabolic Activation: GUINEA PIG, LIVER, S-9, PCB) “active; positive”; (Strain/Indicator: TA100, Metabolic Activation: GUINEA PIG, LIVER, S-105, PCB) “inactive; negative”.

In the case of `CN1CCN(C2=Nc3ccccc3Oc3ccc(Cl)cc32)CC1`, the mutagenic call under setting [1] is “inactive; negative”; the mutagenic call (Strain/Indicator: TA98, Metabolic Activation: RAT, LIVER, S-9, AROCLOR 1254, Method: STANDARD PLATE) was “inactive; negative”; the mutagenic call under setting [2] was “inactive; negative”; the mutagenic call (Strain/Indicator: TA100, Metabolic Activation: RAT, LIVER, S-9, AROCLOR 1254, Method: STANDARD PLATE) is “inactive; negative”; the mutagenic call under setting [4] was “inactive; negative”; the mutagenic call (Strain/Indicator: TA1535, Metabolic Activation: RAT, LIVER, S-9, AROCLOR 1254, Method: STANDARD PLATE) was “inactive; negative”. Besides, the mutagenic call runs as follows: under setting [3], “inactive; negative”; (Strain/Indicator: TA1537, Metabolic Activation: RAT, LIVER, S-9, AROCLOR 1254, Method: STANDARD PLATE) “inactive; negative”.
